Assay results reported in ChEMBL document CHEMBL3046355, “Design, synthesis, and herbicidal activities of novel 2-cyanoacrylates containing isoxazole moieties” (2010).

Columns and labels:
Format in all cases: functional
Echinochloa crus-galli [1] = assay: Herbicidal activity against Echinochloa crus-galli (barnyard grass) assessed as inhibition of weed growth at 1.5 kg/ha using postemergence treatment protocol; details: post-emergence
Digitaria sanguinalis [2] = assay: Herbicidal activity against Digitaria sanguinalis (hairy crabgrass) assessed as inhibition of weed growth at 1.5 kg/ha using pre-emergence treatment protocol
Digitaria sanguinalis [3] = assay: Herbicidal activity against Digitaria sanguinalis (hairy crabgrass) assessed as inhibition of weed growth at 1.5 kg/ha using post-emergence treatment protocol
Brassica napus [4] = assay: Herbicidal activity against Brassica napus (oilseed rape) assessed as inhibition of weed growth at 375 g/ha using postemergence treatment protocol; details: post-emergence
Brassica napus [5] = assay: Herbicidal activity against Brassica napus (oilseed rape) assessed as inhibition of weed growth at 1.5 kg/ha using preemergence treatment protocol; details: pre-emergence
Brassica napus [6] = assay: Herbicidal activity against Brassica napus (oilseed rape) assessed as inhibition of weed growth at 1.5 kg/ha using postemergence treatment protocol; details: post-emergence
Brassica napus [7] = assay: Herbicidal activity against Brassica napus (oilseed rape) assessed as inhibition of weed growth at 75 g/ha using postemergence treatment protocol; details: post-emergence
Amaranthus retroflexus [8] = assay: Herbicidal activity against Amaranthus retroflexus assessed as inhibition of weed growth at 375 g/ha using postemergence treatment protocol; details: post-emergence
Brassica napus [9] = assay: Herbicidal activity against Brassica napus (oilseed rape) assessed as inhibition of weed growth at 750 g/ha using postemergence treatment protocol; details: post-emergence
Echinochloa crus-galli [10] = assay: Herbicidal activity against Echinochloa crus-galli (barnyard grass) assessed as inhibition of weed growth at 1.5 kg/ha using preemergence treatment protocol; details: pre-emergence
Amaranthus retroflexus [11] = assay: Herbicidal activity against Amaranthus retroflexus assessed as inhibition of weed growth at 150 g/ha using postemergence treatment protocol; details: post-emergence
Amaranthus retroflexus [12] = assay: Herbicidal activity against Amaranthus retroflexus assessed as inhibition of weed growth at 1.5 kg/ha using preemergence treatment protocol; details: pre-emergence
Amaranthus retroflexus [13] = assay: Herbicidal activity against Amaranthus retroflexus assessed as inhibition of weed growth at 750 g/ha using postemergence treatment protocol; details: post-emergence
Amaranthus retroflexus [14] = assay: Herbicidal activity against Amaranthus retroflexus assessed as inhibition of weed growth at 75 g/ha using postemergence treatment protocol; details: post-emergence
Brassica napus [15] = assay: Herbicidal activity against Brassica napus (oilseed rape) assessed as inhibition of weed growth at 150 g/ha using postemergence treatment protocol; details: post-emergence
Amaranthus retroflexus [16] = assay: Herbicidal activity against Amaranthus retroflexus assessed as inhibition of weed growth at 1.5 kg/ha using postemergence treatment protocol; details: post-emergence

## CCOCCOC(=O)/C(C#N)=C(\NCc1cc(-c2ccccc2)no1)C(C)C
Echinochloa crus-galli [1]
  inhibition at 1500 g/ha: 40%
Digitaria sanguinalis [2]
  inhibition at 1500 g/ha: 24.9%
Digitaria sanguinalis [3]
  inhibition at 1500 g/ha: 59.4%
Brassica napus [4]
  inhibition at 375 g/ha: 100%
Brassica napus [5]
  inhibition at 1500 g/ha: 28.7%
Brassica napus [6]
  inhibition at 1500 g/ha: 100%
Brassica napus [7]
  inhibition at 75 g/ha: 54.2%
Amaranthus retroflexus [8]
  inhibition at 375 g/ha: 100%
Brassica napus [9]
  inhibition at 750 g/ha: 100%
Echinochloa crus-galli [10]
  inhibition at 1500 g/ha: 0%
Amaranthus retroflexus [11]
  inhibition at 150 g/ha: 78.3%
Amaranthus retroflexus [12]
  inhibition at 1500 g/ha: 88.6%
Amaranthus retroflexus [13]
  inhibition at 750 g/ha: 100%
Amaranthus retroflexus [14]
  inhibition at 75 g/ha: 17.4%
Brassica napus [15]
  inhibition at 150 g/ha: 97.3%
Amaranthus retroflexus [16]
  inhibition at 1500 g/ha: 100%
